Laboratory results published in US10131652B2, “Pyrimidinyloxy benzene derivatives as herbicides” (E. I. DU PONT DE NEMOURS AND COMPANY, priority 2014, dated 2018).
Like-named read-outs stand apart in the source and are kept apart here.

Legend:
Assay in all cases: Test E pre-/postemergence plant response
Type in all cases: in vivo
[1] = system: blackgrass (Alopecurus myosuroides); settings: scale 0 to 100, read-out: Plant response rating, Blackgrass; for pest or weed control at 16 g/ha: 16 g ai/ha; for pest or weed control at 31 g/ha: 31 g ai/ha; for pest or weed control at 62 g/ha: 62 g ai/ha; for pest or weed control at 125 g/ha: 125 g ai/ha
In short: (§1)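 Visual scores on a 0–100 scale (100 = complete control) were assigned against untreated controls 7–21 days after treatment in a controlled environment. Compounds, formulated with solvent plus surfactant, were applied to pre-emergence silt-loam sowings or to 1- to 4-leaf plants (2–18 cm) in potting medium.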

[2] = system: canarygrass (Phalaris minor); settings: scale 0 to 100, read-out: Plant response rating, Canarygrass; for pest or weed control at 16 g/ha: 16 g ai/ha; for pest or weed control at 31 g/ha: 31 g ai/ha; for pest or weed control at 62 g/ha: 62 g ai/ha; for pest or weed control at 125 g/ha: 125 g ai/ha
In short: as §1

[3] = system: deadnettle (henbit deadnettle, Lamium amplexicaule); settings: scale 0 to 100, read-out: Plant response rating, Deadnettle; for pest or weed control at 16 g/ha: 16 g ai/ha; for pest or weed control at 31 g/ha: 31 g ai/ha; for pest or weed control at 62 g/ha: 62 g ai/ha; for pest or weed control at 125 g/ha: 125 g ai/ha
In short: as §1

[4] = system: field poppy (Papaver rhoeas); settings: scale 0 to 100, read-out: Plant response rating, Field Poppy; for pest or weed control at 16 g/ha: 16 g ai/ha; for pest or weed control at 31 g/ha: 31 g ai/ha; for pest or weed control at 62 g/ha: 62 g ai/ha; for pest or weed control at 125 g/ha: 125 g ai/ha
In short: as §1

[5] = system: field violet (Viola arvensis); settings: scale 0 to 100, read-out: Plant response rating, Field Violet; for pest or weed control at 16 g/ha: 16 g ai/ha; for pest or weed control at 31 g/ha: 31 g ai/ha; for pest or weed control at 62 g/ha: 62 g ai/ha; for pest or weed control at 125 g/ha: 125 g ai/ha
In short: as §1

[6] = system: lambsquarters (Chenopodium album); settings: scale 0 to 100, read-out: Plant response rating, Lambsquarters; for pest or weed control at 16 g/ha: 16 g ai/ha; for pest or weed control at 31 g/ha: 31 g ai/ha; for pest or weed control at 62 g/ha: 62 g ai/ha; for pest or weed control at 125 g/ha: 125 g ai/ha
In short: as §1

[7] = system: speedwell (bird's-eye speedwell, Veronica persica); settings: scale 0 to 100, read-out: Plant response rating, Speedwell; for pest or weed control at 16 g/ha: 16 g ai/ha; for pest or weed control at 62 g/ha: 62 g ai/ha; for pest or weed control at 125 g/ha: 125 g ai/ha
In short: as §1

[8] = system: spring barley (Hordeum vulgare); settings: for plant injury at 16 g/ha: 16 g ai/ha; for plant injury at 31 g/ha: 31 g ai/ha; for plant injury at 62 g/ha: 62 g ai/ha; for plant injury at 125 g/ha: 125 g ai/ha
In short: as §1

[9] = system: spring wheat (Triticum aestivum); settings: scale 0 to 100, read-out: Plant response rating, Wheat, Spring; for plant injury at 16 g/ha: 16 g ai/ha; for plant injury at 62 g/ha: 62 g ai/ha; for plant injury at 125 g/ha: 125 g ai/ha
In short: as §1

wild oat (Avena fatua) = settings: scale 0 to 100, read-out: Plant response rating, Oat, Wild; for pest or weed control at 16 g/ha: 16 g ai/ha; for pest or weed control at 31 g/ha: 31 g ai/ha; for pest or weed control at 62 g/ha: 62 g ai/ha; for pest or weed control at 125 g/ha: 125 g ai/ha
In short: as §1

[10] = system: winter wheat (Triticum aestivum); settings: scale 0 to 100, read-out: Plant response rating, Wheat, Winter; for plant injury at 16 g/ha: 16 g ai/ha; for plant injury at 62 g/ha: 62 g ai/ha; for plant injury at 125 g/ha: 125 g ai/ha
In short: as §1

[11] = post-emergence, 31 g ai/ha, Postemergence
[12] = post-emergence, Postemergence, scale 0 to 100, read-out: Plant response rating, Barley, Spring
[13] = pre-emergence, Preemergence, scale 0 to 100, read-out: Plant response rating, Barley, Spring

## FC(F)c1cc(-c2ccccc2Oc2ncc(Br)cn2)no1 [Compound 62, 5-bromo-2-[2-[5-(difluoromethyl)-3-isoxazolyl]phenoxy]pyrimidine]
[1]; post-emergence, Postemergence
  pest or weed control at 16 g/ha: 15%
  pest or weed control at 31 g/ha: 30%
  pest or weed control at 62 g/ha: 40%
  pest or weed control at 125 g/ha: 75%
[1]; pre-emergence, Preemergence
  pest or weed control at 16 g/ha: 5%
  pest or weed control at 31 g/ha: 15%
  pest or weed control at 62 g/ha: 15%
  pest or weed control at 125 g/ha: 65%
[2]; post-emergence, Postemergence
  pest or weed control at 16 g/ha: 25%
  pest or weed control at 31 g/ha: 35%
  pest or weed control at 62 g/ha: 45%
  pest or weed control at 125 g/ha: 55%
[2]; pre-emergence, Preemergence
  pest or weed control at 16 g/ha: 0%
  pest or weed control at 31 g/ha: 0%
  pest or weed control at 62 g/ha: 50%
  pest or weed control at 125 g/ha: 90%
[3]; post-emergence, Postemergence
  pest or weed control at 16 g/ha: 35%
  pest or weed control at 31 g/ha: 35%
  pest or weed control at 62 g/ha: 65%
  pest or weed control at 125 g/ha: 70%
[3]; pre-emergence, Preemergence
  pest or weed control at 16 g/ha: 15%
  pest or weed control at 31 g/ha: 20%
  pest or weed control at 62 g/ha: 40%
  pest or weed control at 125 g/ha: 100%
[4]; post-emergence, Postemergence
  pest or weed control at 16 g/ha: 40%
  pest or weed control at 31 g/ha: 55%
  pest or weed control at 62 g/ha: 70%
  pest or weed control at 125 g/ha: 75%
[4]; pre-emergence, Preemergence
  pest or weed control at 16 g/ha: 65%
  pest or weed control at 31 g/ha: 75%
  pest or weed control at 62 g/ha: 100%
  pest or weed control at 125 g/ha: 100%
[5]; post-emergence, Postemergence
  pest or weed control at 16 g/ha: 60%
  pest or weed control at 31 g/ha: 65%
  pest or weed control at 62 g/ha: 70%
  pest or weed control at 125 g/ha: 85%
[5]; pre-emergence, Preemergence
  pest or weed control at 16 g/ha: 0%
  pest or weed control at 31 g/ha: 10%
  pest or weed control at 62 g/ha: 35%
  pest or weed control at 125 g/ha: 100%
[6]; post-emergence, Postemergence
  pest or weed control at 16 g/ha: 75%
  pest or weed control at 31 g/ha: 95%
  pest or weed control at 62 g/ha: 95%
  pest or weed control at 125 g/ha: 95%
[6]; pre-emergence, Preemergence
  pest or weed control at 16 g/ha: 35%
  pest or weed control at 31 g/ha: 85%
  pest or weed control at 62 g/ha: 95%
  pest or weed control at 125 g/ha: 100%
[7]; post-emergence, Postemergence
  pest or weed control at 16 g/ha: 70%
  pest or weed control at 62 g/ha: 100%
  pest or weed control at 125 g/ha: 100%
[7]; [11]
  pest or weed control at 31 g/ha: 95%
[7]; pre-emergence, Preemergence
  pest or weed control at 16 g/ha: 95%
  pest or weed control at 62 g/ha: 95%
  pest or weed control at 125 g/ha: 100%
[8]; [12]
  plant injury at 16 g/ha: 10%
  plant injury at 31 g/ha: 15%
  plant injury at 62 g/ha: 20%
[8]; post-emergence, Postemergence, scale 0 to 100 (0 no effect, 100 complete control), read-out: Plant response rating, Barley, Spring
  plant injury at 125 g/ha: 25%
[8]; [13]
  plant injury at 16 g/ha: 0%
  plant injury at 31 g/ha: 0%
  plant injury at 62 g/ha: 0%
  plant injury at 125 g/ha: 0%
[9]; post-emergence, Postemergence
  plant injury at 16 g/ha: 5%
  plant injury at 62 g/ha: 25%
  plant injury at 125 g/ha: 40%
[9]; [11]
  plant injury at 31 g/ha: 20%
[9]; pre-emergence, Preemergence
  plant injury at 16 g/ha: 0%
  plant injury at 62 g/ha: 0%
  plant injury at 125 g/ha: 10%
Wild oat (Avena fatua); post-emergence, Postemergence
  pest or weed control at 16 g/ha: 15%
  pest or weed control at 31 g/ha: 25%
  pest or weed control at 62 g/ha: 35%
  pest or weed control at 125 g/ha: 60%
Wild oat (Avena fatua); pre-emergence, Preemergence
  pest or weed control at 16 g/ha: 0%
  pest or weed control at 31 g/ha: 10%
  pest or weed control at 62 g/ha: 15%
  pest or weed control at 125 g/ha: 20%
[10]; post-emergence, Postemergence
  plant injury at 16 g/ha: 10%
  plant injury at 62 g/ha: 30%
  plant injury at 125 g/ha: 35%
[10]; [11]
  plant injury at 31 g/ha: 20%
[10]; pre-emergence, Preemergence
  plant injury at 16 g/ha: 0%
  plant injury at 62 g/ha: 0%
  plant injury at 125 g/ha: 5%
